Measured values taken from ChEMBL document CHEMBL4616634, “4β-Hydroxywithanolide E from Goldenberry (Whole Fruits of Physalis peruviana L.) as a Promising Agent against Chronic Obstructive Pulmonary Disease” (J Nat Prod, 2020).
Active and inactive are the calls of the source. The calls are words filed in the database; no cut-off is given here.

Assays:
Mus musculus [1] = assay: Antioxidant Activity in C57BL/6 mouse model of CS-induced pulmonary injury assessed as increase in SOD level in serum at 2 to 4 mg/kg, ip for 5 days; assay type: functional, organism-based
[2] = biological target: Keap1/Nrf2 (Homo sapiens) (UniProt Q16236+Q14145); assay: Inhibition of Nrf2-KEAP1 (unknown origin) transfected in BEAS2B cells assessed as decrease in ratio of Nrf2 to Keap1 at 5 uM incubated for 24 hrs by immunoblot analysis; assay type: cell-based
[3] = biological target: T1, Nuclear factor erythroid 2-related factor 2 (Homo sapiens) (UniProt Q16236); assay: Activation of Nrf2 in human BEAS2B cells at 0.25 to 2 uM incubated for 12 hrs by immunoblot analysis relative to SF; assay type: cell-based
T1 sequence (whole entry): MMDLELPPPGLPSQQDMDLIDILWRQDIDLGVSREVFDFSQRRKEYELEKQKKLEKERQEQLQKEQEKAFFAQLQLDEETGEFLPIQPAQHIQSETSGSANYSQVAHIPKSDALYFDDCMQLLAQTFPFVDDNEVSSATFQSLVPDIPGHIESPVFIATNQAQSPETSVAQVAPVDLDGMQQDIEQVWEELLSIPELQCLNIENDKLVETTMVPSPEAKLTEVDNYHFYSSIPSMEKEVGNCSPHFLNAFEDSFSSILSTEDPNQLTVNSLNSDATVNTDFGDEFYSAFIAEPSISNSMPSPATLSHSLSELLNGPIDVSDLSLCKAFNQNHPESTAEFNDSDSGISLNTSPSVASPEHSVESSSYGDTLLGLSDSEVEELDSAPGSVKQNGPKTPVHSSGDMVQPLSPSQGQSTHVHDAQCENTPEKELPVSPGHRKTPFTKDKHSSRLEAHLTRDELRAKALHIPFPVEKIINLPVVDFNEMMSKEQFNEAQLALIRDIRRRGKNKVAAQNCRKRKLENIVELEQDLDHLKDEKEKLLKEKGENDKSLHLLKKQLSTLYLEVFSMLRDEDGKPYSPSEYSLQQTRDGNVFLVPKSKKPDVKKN

[4] = biological target: T1, Nuclear factor erythroid 2-related factor 2 (Homo sapiens); assay: Activation of Nrf2 in human MDA-MB-231 cells assessed as increase in ARE luciferase activity at 0.13 to 2 uM incubated for 16 hrs by luciferase reporter gene assay; assay type: cell-based
[5] = biological target: T1, Nuclear factor erythroid 2-related factor 2 (Homo sapiens); assay: Activation of Nrf2 in human BEAS2B cells assessed as increase in Nrf2 protein level incubated for 12 hrs by immunoblot analysis; assay type: cell-based
[6] = biological target: T1, Nuclear factor erythroid 2-related factor 2 (Homo sapiens); assay: Activation of Nrf2 in human BEAS2B cells harboring Keap1-C288S mutant assessed as increase in Nrf2 protein expression at 2.5 uM after12 hrs in presence of Keap1-siRNA by immunoblot analysis; assay type: cell-based
[7] = biological target: T2, Nuclear factor erythroid 2-related factor 2 (Mus musculus) (UniProt Q60795); assay: Activation of Nrf2 in mouse Hepa1c1c7 cells assessed as increase in quinone reductase activity incubated for 24 hrs by MTT based assay; assay type: cell-based
T2 sequence (whole entry): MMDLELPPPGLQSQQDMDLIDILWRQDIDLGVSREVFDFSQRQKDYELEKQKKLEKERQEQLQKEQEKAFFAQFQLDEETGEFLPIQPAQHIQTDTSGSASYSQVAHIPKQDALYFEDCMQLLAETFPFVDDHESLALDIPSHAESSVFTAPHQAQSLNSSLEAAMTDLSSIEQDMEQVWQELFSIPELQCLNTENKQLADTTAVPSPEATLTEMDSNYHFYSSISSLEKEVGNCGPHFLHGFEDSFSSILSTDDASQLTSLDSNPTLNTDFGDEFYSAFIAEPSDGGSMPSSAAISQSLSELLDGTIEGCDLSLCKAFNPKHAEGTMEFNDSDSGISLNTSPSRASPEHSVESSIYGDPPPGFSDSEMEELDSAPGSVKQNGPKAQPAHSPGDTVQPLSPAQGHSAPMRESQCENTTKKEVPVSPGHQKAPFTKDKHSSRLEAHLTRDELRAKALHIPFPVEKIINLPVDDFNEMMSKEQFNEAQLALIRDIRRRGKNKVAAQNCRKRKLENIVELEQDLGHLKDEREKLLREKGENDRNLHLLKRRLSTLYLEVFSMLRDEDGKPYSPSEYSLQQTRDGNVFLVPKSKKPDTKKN

Mus musculus [8] = assay: Antiinflammatory activity in C57BL/6 mouse model of CS-induced pulmonary injury assessed as reduction in goblet cell hyperplasia in perivascular areas in lungs at 2 to 4 mg/kg, ip for 5 days by hematoxylin and eosin staining based fluorescence microscopic analysis; assay type: functional, organism-based
Mus musculus [9] = assay: Antioxidant Activity in C57BL/6 mouse model of CS-induced pulmonary injury assessed as decrease in MDA level in serum at 2 to 4 mg/kg, ip for 5 days; assay type: functional, organism-based
[10] = biological target: T1, Nuclear factor erythroid 2-related factor 2 (Homo sapiens); assay: Activation of Nrf2 in human BEAS2B cells assessed as increase in Nrf2 protein expression at 1 uM incubated for 8 hrs by immunoblot analysis; assay type: cell-based
BEAS-2B [11] = assay: Antioxidant activity in human BEAS2B cells assessed as increase in GSH level at 2 uM incubated for 1 to 12 hrs; assay type: functional, cell-based
RAW264.7 [12] = assay: Inhibition of LPS-induced iNOS mRNA expression in mouse RAW264.7 cells at 0.5 to 4 uM preincubated for 1 hr followed by LPS-stimulation and measured after 6 hrs by qRT-PCR analysis; assay type: functional, cell-based
[13] = biological target: T1, Nuclear factor erythroid 2-related factor 2 (Homo sapiens); assay: Activation of Nrf2 in human MDA-MB-231 cells assessed as increase in luciferase activity incubated for 16 hrs by dual luciferase reporter gene assay; assay type: cell-based
BEAS-2B [14] = assay: Antioxidant activity in human BEAS2B cells assessed as increase in GSH level incubated for 24 hrs; assay type: functional, cell-based
Mus musculus [15] = assay: Antiinflammatory activity in C57BL/6 mouse model of CS-induced pulmonary injury assessed as reduction in TNFapha protein expression in lungs at 2 to 4 mg/kg, ip for 5 days by ELISA; assay type: functional, organism-based
[16] = biological target: T1, Nuclear factor erythroid 2-related factor 2 (Homo sapiens); assay: Activation of Nrf2 in human MDA-MB-231 cells assessed as increase in GCLM protein level at 0.5 uM incubated for 16 hrs by immunoblot analysis; assay type: cell-based
Mus musculus [17] = assay: Antiinflammatory activity in C57BL/6 mouse model of CS-induced pulmonary injury assessed as reduction in IL-6 protein expression in lungs at 2 to 4 mg/kg, ip for 5 days by ELISA; assay type: functional, organism-based
Mus musculus [18] = assay: Antiinflammatory activity in C57BL/6 mouse model of CS-induced pulmonary injury assessed as reduction in distinct infiltration of leukocytes in lungs at 2 to 4 mg/kg, ip for 5 days by hematoxylin and eosin staining based fluorescence microscopic analysis; assay type: functional, organism-based
[19] = biological target: T1, Nuclear factor erythroid 2-related factor 2 (Homo sapiens); assay: Activation of Nrf2 in human BEAS2B cells assessed as increase in GCLM protein expression incubated for 12 hrs by immunoblot analysis; assay type: cell-based
[20] = biological target: T1, Nuclear factor erythroid 2-related factor 2 (Homo sapiens); assay: Activation of Nrf2 in human MDA-MB-231 cells assessed as increase in NQO1 protein level at 0.5 uM incubated for 16 hrs by immunoblot analysis; assay type: cell-based
RAW264.7 [21] = assay: Inhibition of LPS-induced iNOS protein expression in mouse RAW264.7 cells at 0.5 to 4 uM preincubated for 1 hr followed by LPS-stimulation and measured after 16 hrs by immunoblot analysis; assay type: functional, cell-based
BEAS-2B [22] = assay: Cytotoxicity against human BEAS2B cells assessed as decrease in cell viability at < 12.5 uM after 24 hrs by MTT assay; assay type: cell-based

Chain of Keap1/Nrf2 (Homo sapiens) (Q14145 whole entry, looked up, one chain of several): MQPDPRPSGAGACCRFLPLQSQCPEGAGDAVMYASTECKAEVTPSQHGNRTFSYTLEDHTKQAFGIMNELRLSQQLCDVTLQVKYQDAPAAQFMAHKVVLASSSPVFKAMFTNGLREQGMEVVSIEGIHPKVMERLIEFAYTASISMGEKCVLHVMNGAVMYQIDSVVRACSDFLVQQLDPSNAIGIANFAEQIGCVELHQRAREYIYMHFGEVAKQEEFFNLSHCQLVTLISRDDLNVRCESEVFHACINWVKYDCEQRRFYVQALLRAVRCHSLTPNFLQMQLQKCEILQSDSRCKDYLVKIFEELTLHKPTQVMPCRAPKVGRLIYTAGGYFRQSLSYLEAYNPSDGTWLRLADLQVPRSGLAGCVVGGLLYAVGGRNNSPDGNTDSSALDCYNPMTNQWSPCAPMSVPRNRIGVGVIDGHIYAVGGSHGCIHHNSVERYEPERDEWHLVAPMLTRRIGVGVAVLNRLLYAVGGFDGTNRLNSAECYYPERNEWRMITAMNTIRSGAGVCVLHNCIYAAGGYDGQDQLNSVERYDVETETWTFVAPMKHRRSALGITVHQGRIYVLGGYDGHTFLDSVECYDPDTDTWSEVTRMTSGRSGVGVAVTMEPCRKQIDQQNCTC

## CC1=C(C)C(=O)O[C@H]([C@](C)(O)[C@]2(O)CC[C@@]3(O)[C@@H]4C[C@H]5O[C@]56[C@@H](O)C=CC(=O)[C@]6(C)[C@H]4CC[C@]23C)C1
Mus musculus [1]
  Activity: Active
[2]
  inhibition: Active
[3]
  fold change (FC): 2
[4]
  Activity: Active
[5]
  Activity: Dose-dependent effect
[6]
  Activity: inactive
[7]
  Activity: Dose-dependent effect
Mus musculus [8]
  Activity: Active
Mus musculus [9]
  Activity: Active
[10]
  Activity: Active
BEAS-2B [11]
  Activity: Active
RAW264.7 [12]
  inhibition: Active
[13]
  Activity: Dose-dependent effect
BEAS-2B [14]
  Activity: Active
Mus musculus [15]
  Activity: Active
[16]
  Activity: Active
Mus musculus [17]
  Activity: Active
Mus musculus [18]
  Activity: Active
[19]
  Activity: Dose-dependent effect
[20]
  Activity: Active
RAW264.7 [21]
  inhibition: Active
BEAS-2B [22]
  Activity: Non-Toxic
